From US20260184663A1, “INDENE COMPOUNDS, PHARMACEUTICAL COMPOSITIONS THEREOF, AND THEIR THERAPEUTIC APPLICATIONS” (NucMito Pharmaceuticals co. Ltd., priority 2022, published 2026)

How the values were obtained:
Format in all cases: cell-based
SW480 (colon cancer) = experiment: Antiproliferative activity (CCK-8 cell viability), SW480; conditions: Homo sapiens, 72 h, read-out: Antiproliferative activity in cancerous cells, SW480 (inhibition of cell growth); for inhibition at 3.3 µM: Compound concentration: 3.3 μM; for inhibition at 10 µM: Compound concentration: 10 μM
Summary of the method: (§1)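 Cells grown in DMEM (HepG2, SW480), MEM (HeLa) or F-12K (A549), each with 10% FBS, then exposed to compound at 3.3, 10 or 30 μM for 72 h at 37 °C. CCK-8 absorbance at 450 nm; viability expressed as percent of DMSO-treated cells, graded as growth inhibition bands.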

[1] = system: MDA-MB-231 (breast cancer); experiment: Antiproliferative activity (CCK-8 cell viability), MDA-MB-231; conditions: Homo sapiens, 72 h; for inhibition at 3.3 µM: Compound concentration: 3.3 μM; for inhibition at 3.3 µM / inhibition at 10 µM: read-out: Antiproliferative activity in cancerous cells, MDA-MB-231 (inhibition of cell growth); for inhibition at 10 µM: Compound concentration: 10 μM; for inhibition at 30 µM: Compound concentration: 30 μM, read-out: Antiproliferative activity in cancerous cells, MDA-MB-231
Summary of the method: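 MDA-MB-231 breast cancer cells, grown in DMEM with 10% FBS, were plated in 96-well plates at 2,000-5,000 cells/well. Once attached, they were exposed to compound and incubated at 37° C. for 72 h. Viability was then measured with CCK-8 (10 μL per well, 4 h at 37° C.) by absorbance at 450 nm, relative to DMSO vehicle wells.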

HeLa (cervical cancer) = experiment: Antiproliferative activity (CCK-8 cell viability), HeLa; conditions: Homo sapiens, 72 h, read-out: Antiproliferative activity in cancerous cells, HELA (inhibition of cell growth); for inhibition at 3.3 µM: Compound concentration: 3.3 μM; for inhibition at 10 µM: Compound concentration: 10 μM
Summary of the method: as §1

[2] = system: A549 (lung adenocarcinoma); experiment: Antiproliferative activity (CCK-8 cell viability), A549; conditions: Homo sapiens, 72 h, read-out: Antiproliferative activity in cancerous cells, A549 (inhibition of cell growth); for inhibition at 3.3 µM: Compound concentration: 3.3 μM; for inhibition at 10 µM: Compound concentration: 10 μM
Summary of the method: as §1

HepG2 (liver cancer) = experiment: Antiproliferative activity (CCK-8 cell viability), HepG2; conditions: Homo sapiens, 72 h, read-out: Antiproliferative activity in cancerous cells, HepG2 (inhibition of cell growth); for inhibition at 3.3 µM: Compound concentration: 3.3 μM; for inhibition at 10 µM: Compound concentration: 10 μM
Summary of the method: as §1

[3] = system: A431 (epidermoid carcinoma); experiment: Antiproliferative activity (CCK-8 cell viability), A431; conditions: Homo sapiens, 72 h; for inhibition at 3.3 µM: A-431, Compound concentration: 3.3 μM; for inhibition at 3.3 µM / inhibition at 10 µM: read-out: Antiproliferative activity in cancerous cells, A431 (inhibition of cell growth); for inhibition at 10 µM: A-431, Compound concentration: 10 μM; for inhibition at 30 µM: A-431, Compound concentration: 30 μM, read-out: Antiproliferative activity in cancerous cells, A431
Summary of the method: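 A431 epidermoid carcinoma cells grown in DMEM with 10% FBS were plated at 2,000-5,000 cells/well in 96-well plates. After attachment they were exposed to compound at 3.3 μM, 10 μM, or 30 μM for 72 h at 37° C. Viability was then assessed by CCK-8 against DMSO vehicle-treated wells.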

[4] = system: B16F10 (malignant melanoma); experiment: Antiproliferative activity (CCK-8 cell viability), B16F10; conditions: Mus musculus, 72 h, read-out: Antiproliferative activity in cancerous cells, B16F10 (inhibition of cell growth); for inhibition at 3.3 µM: B16-F10, Compound concentration: 3.3 μM; for inhibition at 10 µM: B16-F10, Compound concentration: 10 μM
Summary of the method: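 B16F10 melanoma cells grown in DMEM with 10% FBS were plated in 96-well plates at 2,000-5,000 cells/well. After attachment they were exposed to compound in medium for 72 h at 37° C. CCK-8 solution (10 μL) was then added, and after 4 h at 37° C absorbance was read at 450 nm.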

Row | SMILES | inhibition at 3.3 µM (SW480 (colon cancer)) [%] | inhibition at 10 µM (SW480 (colon cancer)) [%] | inhibition at 3.3 µM [1] [%] | inhibition at 10 µM [1] [%] | inhibition at 30 µM [1] [%] | inhibition at 3.3 µM (HeLa (cervical cancer)) [%] | inhibition at 10 µM (HeLa (cervical cancer)) [%] | inhibition at 3.3 µM [2] [%] | inhibition at 10 µM [2] [%] | inhibition at 3.3 µM (HepG2 (liver cancer)) [%] | inhibition at 10 µM (HepG2 (liver cancer)) [%] | inhibition at 3.3 µM [3] [%] | inhibition at 10 µM [3] [%] | inhibition at 3.3 µM [4] [%] | inhibition at 10 µM [4] [%] | inhibition at 30 µM [3] [%]
1 | CC1=C(CC(=O)O)c2cc(F)ccc2/C1=C\c1ccc(S(=O)(=O)c2ccc(F)cc2)cc1 [C40, (Z)-2-(5-Fluoro-1-(4-((4-fluorophenyl)sulfonyl)benzylidene)-2-methyl-1H-inden-3-yl)acetic acid] | < 30 | ≥ 50 | 30 to 50 | 30 to 50 | 30 to 50 | < 30 | ≥ 50 | < 30 | 30 to 50 | < 30 | ≥ 50 | 30 to 50 | 30 to 50 | < 30 | ≥ 50 | –
2 | COc1ccc(S(=O)(=O)c2ccc(/C=C3/C(C)=C(CC(=O)O)c4cc(F)ccc43)cc2)cc1 [C41, (Z)-2-(5-Fluoro-1-(4-((4-methoxyphenyl)sulfonyl)benzylidene)-2-methyl-1H-inden-3-yl)acetic acid] | < 30 | ≥ 50 | ≥ 50 | ≥ 50 | – | < 30 | ≥ 50 | < 30 | ≥ 50 | < 30 | ≥ 50 | 30 to 50 | ≥ 50 | 30 to 50 | ≥ 50 | –
3 | CC1=C(CC(=O)O)c2cc(F)ccc2/C1=C\c1cccc(Sc2ccc(F)cc2)c1 [C42, (Z)-2-(5-Fluoro-1-(3-((4-fluorophenyl)thio)benzylidene)-2-methyl-1H-inden-3-yl)acetic acid] | < 30 | ≥ 50 | ≥ 50 | ≥ 50 | – | < 30 | ≥ 50 | < 30 | ≥ 50 | < 30 | ≥ 50 | < 30 | ≥ 50 | 30 to 50 | ≥ 50 | –
4 | CC1=C(CC(=O)O)c2cc(F)ccc2/C1=C\c1cccc([S+]([O-])c2ccc(F)cc2)c1 (stereo not drawn) [C43, (Z)-2-(5-Fluoro-1-(3-((4-fluorophenyl)sulfinyl)benzylidene)-2-methyl-1H-inden-3-yl)acetic acid] | < 30 | < 30 | 30 to 50 | ≥ 50 | – | < 30 | 30 to 50 | < 30 | 30 to 50 | < 30 | < 30 | 30 to 50 | 30 to 50 | < 30 | < 30 | 30 to 50
5 | CC1=C(CC(=O)O)c2cc(F)ccc2/C1=C\c1cccc(S(=O)(=O)c2ccc(F)cc2)c1 [C44, (Z)-2-(5-Fluoro-1-(3-((4-fluorophenyl)sulfonyl)benzylidene)-2-methyl-1H-inden-3-yl)acetic acid] | < 30 | 30 to 50 | ≥ 50 | ≥ 50 | – | < 30 | ≥ 50 | < 30 | 30 to 50 | < 30 | ≥ 50 | ≥ 50 | 30 to 50 | < 30 | 30 to 50 | –
6 | CC1=C(CC(=O)O)c2cc(F)ccc2/C1=C\c1ccc([S+]([O-])c2ccc(F)cc2)cc1 (stereo not drawn) [C45, (Z)-2-(5-Fluoro-1-(4-((4-fluorophenyl)sulfinyl)benzylidene)-2-methyl-1H-inden-3-yl)acetic acid] | < 30 | 30 to 50 | 30 to 50 | ≥ 50 | – | < 30 | ≥ 50 | < 30 | 30 to 50 | < 30 | < 30 | < 30 | < 30 | ≥ 50 | ≥ 50 | < 30
7 | CC1=C(CC(=O)O)c2cc(F)ccc2/C1=C\c1ccc(Sc2ccc(F)cc2)cc1 [C47, (Z)-2-(5-Fluoro-1-(4-((4-fluorophenyl)thio)benzylidene)-2-methyl-1H-inden-3-yl)acetic acid] | < 30 | ≥ 50 | < 30 | < 30 | < 30 | < 30 | ≥ 50 | < 30 | ≥ 50 | < 30 | ≥ 50 | 30 to 50 | ≥ 50 | < 30 | ≥ 50 | –
8 | CC1=C(CC(=O)O)c2cc(F)ccc2/C1=C\c1ccc(Oc2ccc(Cl)c(Cl)c2)cc1 [C49, (Z)-2-(1-(4-(3,4-Dichlorophenoxy)benzylidene)-5-fluoro-2-methyl-1H-inden-3-yl)acetic acid] | 30 to 50 | ≥ 50 | < 30 | ≥ 50 | – | ≥ 50 | ≥ 50 | < 30 | ≥ 50 | < 30 | ≥ 50 | ≥ 50 | ≥ 50 | < 30 | ≥ 50 | –
9 | CC1=C(CC(=O)O)c2cc(F)ccc2/C1=C\c1ccc(Oc2ccc(F)cc2)cc1Cl [C50, (Z)-2-(1-(2-Chloro-4-(4-fluorophenoxy)benzylidene)-5-fluoro-2-methyl-1H-inden-3-yl)acetic acid] | 30 to 50 | ≥ 50 | < 30 | ≥ 50 | – | 30 to 50 | ≥ 50 | < 30 | ≥ 50 | < 30 | ≥ 50 | ≥ 50 | ≥ 50 | < 30 | ≥ 50 | –
10 | COc1cc(Oc2ccc(F)cc2)ccc1/C=C1/C(C)=C(CC(=O)O)c2cc(F)ccc21 [C51, (Z)-2-(5-Fluoro-1-(4-(4-fluorophenoxy)-2-methoxybenzylidene)-2-methyl-1H-inden-3-yl)acetic acid] | 30 to 50 | ≥ 50 | 30 to 50 | ≥ 50 | – | 30 to 50 | ≥ 50 | 30 to 50 | 30 to 50 | < 30 | ≥ 50 | ≥ 50 | ≥ 50 | ≥ 50 | ≥ 50 | –
